Test results as given in article PMC10349806 (Nature Communications, 2023).
Where “and” joins values, the source holds several entries; their conditions need not be identical. Identical values can stand only once.

Assays:
[1] = test system: PfCRT variant D329N; experiment: CQ uptake assay, oocytes expressing D329N; format: cell-based, Plasmodium falciparum
Protocol: (§1) Site-directed mutagenesis of PfCRT^Dd2 was performed as described using the megaprimer method with overlap extension[21],[54]. The primer pairs used are listed in Supplementary Table 6. Please note that a codon-optimized and oocyte-adapted version of PfCRT^Dd2 was used[22] (Supplementary Fig. 16). The resulting DNA fragment was cloned into the SP64T expression vector and verified by sequencing.
(§2) Oocytes were obtained as described previously. Briefly, adult (>2 years old) female X. laevis frogs (NASCO) were anesthetized in a cooled solution of ethyl 3-amino benzoate methanesulfonate (0.1%, w/v), followed by a surgical removal of parts of the ovary. The ovary lobes were carefully dissected and small pieces of oocytes were incubated in Ca^2+-free ND96 buffer (96 mM NaCl, 2 mM KCl, 1 mM MgCl2 buffered with 5 mM HEPES/NaOH, pH 7.5) supplemented with collagenase D (0.1%, w/v; Roche), BSA (0.5%, w/v), and 9 mm Na2HPO4 at 18 °C for 14-16 h while gentle shaking. After incubation, the oocytes were carefully washed several times with ND96 buffer (96 mM NaCl, 2 mM KCl, 1.8 mM CaCl2, 1 mM MgCl2 buffered with 5 mM HEPES/NaOH, pH 7.5) supplemented with 100 mg l^−1 gentamycin). Defolliculated and healthy-looking stage V-VI oocytes were manually selected for RNA microinjection. The RNA was generated as following: The codon-optimized sequences of PfCRT variants were cloned into the pSP64T expression vector. After vector linearization using the restriction endonucleases BamHI or SalI (New England Biolabs), transcription was performed using the in vitro SP6 mMessage mMachine Kit (Ambion)[34]. The obtained RNA was kept at −80 °C and diluted with nuclease-free water to a concentration of 0.6 μg μl^−1. Precision-bore glass capillary tubes (3.5-inch glass capillaries; Drummond Scientific Co.) were pulled on a vertical puller (P-87 Flaming/Brown micropipette puller, Sutter Instrument Co.), graduated, and placed on a microinjector (Nanoject II Auto-Nanoliter Injector, Drummond Scientific Co.). 50 nl of nuclease-free water alone (control oocytes) or 50 nl of 0.6 μg μl^−1 RNA were injected under stereomicroscopic control. Injected oocytes were incubated for 46–72 h at 18 °C with twice-daily buffer changes before usage in experiments.
(§3) Drug uptake assays were performed as described previously[21],[22],[24],[34]. […] The direction of radio-labeled drug transport is here from the mostly acidic extracellular solution (pH 4.5 or 6.0, as indicated) into the oocyte cytosol (pH ∼ 7.2), which corresponds to the efflux of drug from the acidic digestive vacuole (pH 5.2) into the parasite cytoplasm (pH 7.2). The topology of PfCRT in the oolemma is such that both the N- and C-terminus face the extracellular milieu[3],[22]. In the parasite, the N- and C-terminus face the lumen of the digestive vacuole. CQ uptake kinetics were performed by incubating oocytes in ND96 buffer adjusted to a pH of 4.5, 5.0, 5.5, or 6.0 and supplemented with 50 nM [^3H]CQ and one of 7 different CQ concentrations (10 µM, 50 µM, 100 µM, 200 µM, 300 µM, 400 µM, 500 µM CQ). The reaction was stopped at the 60 min time point, which is in the linear uptake range[22],[34] (Supplementary Fig. 17). […] The radioactivity of each sample was measured using a liquid scintillation analyzer Tri-Carb 4910 TR (PerkinElmer). Oocytes that were injected with water instead of RNA were analyzed in parallel, representing the uptake of a drug by diffusion and/or endogenous permeation pathways. […]

[2] = test system: PfCRT variant E207R; experiment: CQ uptake assay, oocytes expressing E207R; format: cell-based, Plasmodium falciparum
Protocol: as §1, §2
Drug uptake assays were performed as described previously[21],[22],[24],[34]. […] The direction of radio-labeled drug transport is here from the mostly acidic extracellular solution (pH 4.5 or 6.0, as indicated) into the oocyte cytosol (pH ∼ 7.2), which corresponds to the efflux of drug from the acidic digestive vacuole (pH 5.2) into the parasite cytoplasm (pH 7.2). The topology of PfCRT in the oolemma is such that both the N- and C-terminus face the extracellular milieu[3],[22]. In the parasite, the N- and C-terminus face the lumen of the digestive vacuole. CQ uptake kinetics were performed by incubating oocytes in ND96 buffer adjusted to a pH of 4.5, 5.0, 5.5, or 6.0 and supplemented with 50 nM [^3H]CQ and one of 7 different CQ concentrations (10 µM, 50 µM, 100 µM, 200 µM, 300 µM, 400 µM, 500 µM CQ). The reaction was stopped at the 60 min time point, which is in the linear uptake range[22],[34] (Supplementary Fig. 17). For determination of the amount of drug uptake for each oocyte, the reaction medium was removed and the oocytes were washed three times with 2 ml of ice-cold ND96 buffer. Each oocyte was individually transferred to a scintillation vial containing 5% sodium dodecyl sulfate (200 μl) for lysis. The radioactivity of each sample was measured using a liquid scintillation analyzer Tri-Carb 4910 TR (PerkinElmer). Oocytes that were injected with water instead of RNA were analyzed in parallel, representing the uptake of a drug by diffusion and/or endogenous permeation pathways. The resulting value represents the “background“ level of drug accumulation in oocytes (in-depth discussion in[22]). […]

[3] = biological target: T1, PfCRT variant E299A (Plasmodium falciparum, UniProt Q9N623, A220S/E299A/I356T/K76T/M74I/N326S/N75E/Q271E/R371I); experiment: CQ uptake assay, oocytes expressing E299A; format: cell-based
T1 sequence (Q9N623 1-424 M74I/N75E/K76T/A220S/Q271E/E299A/N326S/I356T/R371I): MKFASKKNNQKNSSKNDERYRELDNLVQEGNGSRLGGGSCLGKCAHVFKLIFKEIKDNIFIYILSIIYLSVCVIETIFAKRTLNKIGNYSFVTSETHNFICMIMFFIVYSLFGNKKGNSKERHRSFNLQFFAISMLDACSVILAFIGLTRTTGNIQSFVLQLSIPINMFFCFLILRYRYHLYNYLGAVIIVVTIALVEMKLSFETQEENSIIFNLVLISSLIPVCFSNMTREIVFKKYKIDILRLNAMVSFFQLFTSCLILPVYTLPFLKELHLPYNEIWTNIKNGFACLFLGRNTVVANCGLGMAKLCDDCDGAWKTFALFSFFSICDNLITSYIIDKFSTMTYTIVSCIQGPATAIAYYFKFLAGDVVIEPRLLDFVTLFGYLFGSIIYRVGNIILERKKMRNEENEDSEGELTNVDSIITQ
Protocol: as §1, §2, §3

[4] = D329N, 50 µM CQ, 1 h, mean ± SEM
[5] = pH 4.5, single replicates, Fig 1d left
[6] = pH 6.0, single replicates, Fig 1d left
[7] = E207R, 50 µM CQ, 1 h, mean ± SEM
[8] = E299A, 50 µM CQ, 1 h, mean ± SEM

## CCN(CC)CCCC(C)Nc1ccnc2cc(Cl)ccc12 (stereo not shown) [CQ, chloroquine]
[1]; [4]
  Activity at pH 4.5: 0.39 ± 0.14 pmol h-1 oocyte-1
  Activity at pH 6.0: 1.25 ± 0.32 pmol h-1 oocyte-1
[1]; D329N, CQ transport at pH 4.5 / pH 6.0
  R-value: 0.32 ± 0.07
[1]; [5]
  D329N transport activity pH 4.5: 0.14 pmol oocyte-1 h-1 and 0.71 pmol oocyte-1 h-1 and 0.33 pmol oocyte-1 h-1
[1]; [6]
  D329N transport activity pH 6.0: 0.49 pmol oocyte-1 h-1 and 1.49 pmol oocyte-1 h-1 and 1.76 pmol oocyte-1 h-1
[2]; [7]
  Activity at pH 4.5: 2.23 ± 0.16 pmol h-1 oocyte-1
  Activity at pH 6.0: 2.69 ± 0.23 pmol h-1 oocyte-1
[2]; E207R, CQ transport at pH 4.5 / pH 6.0
  R-value: 0.84 ± 0.04
[2]; pH 4.5, individual replicates, Fig 6b
  E207R transport activity pH 4.5: 2.49 pmol oocyte-1 h-1 and 2.35 pmol oocyte-1 h-1 and 1.85 pmol oocyte-1 h-1
[2]; pH 6.0, individual replicates, Fig 6b
  E207R transport activity pH 6.0: 3.24 pmol oocyte-1 h-1 and 2.53 pmol oocyte-1 h-1 and 2.29 pmol oocyte-1 h-1
[2]; ratio of activity pH 4.5 / pH 6.0
  E207RR-value: 0.77 and 0.93 and 0.81
[3]; [8]
  Activity at pH 4.5: 1.87 ± 0.19 pmol h-1 oocyte-1
  Activity at pH 6.0: 3.32 ± 0.54 pmol h-1 oocyte-1
[3]; E299A, CQ transport at pH 4.5 / pH 6.0
  R-value: 0.60 ± 0.12
[3]; [5]
  E299A transport activity pH 4.5: 2.28 pmol oocyte-1 h-1 and 1.48 pmol oocyte-1 h-1 and 1.84 pmol oocyte-1 h-1
[3]; [6]
  E299A transport activity pH 6.0: 2.59 pmol oocyte-1 h-1 and 2.74 pmol oocyte-1 h-1 and 4.64 pmol oocyte-1 h-1
